# Residues, ends and D or L forms follow the SMILES beside them.
# Legend:
# L929 murine fibroblast = experiment: MTT cytotoxicity assay on L929 fibroblasts; format: cell-based, mouse; conditions: for cell viability: 0.1 wt %; for cell survival: 1 wt %
# Experimental: (§1) L929 murine fibroblast and C2C12 immortalized mouse myoblast cell lines (both from ECACC General Cell Collection) were grown in Dulbecco’s modified Eagle’s medium (DMEM) supplemented with 10% fetal bovine serum, 20 mM HEPES, and 1% GlutaMAX. The cells were maintained at pH 7.4, 37 °C, and 5% CO2 in 25 cm^2 cell culture flasks.
# (§2) Cells were seeded in 96-well plates at a density of 0.6 × 10^4 cells per well. Cells were then treated with peptides dissolved in the medium at the concentrations of 0.1 and 1 × 10^–4 wt %. To test cytocompatibility in the presence of the hydrogels, wells were filled with 1 wt % mG and pG hydrogels before seeding. At the end of the treatment (after 24 or 72 h), cell viability was assessed using an MTT [3-(4, 5-dimethylthiazolyl-2)-2, 5-diphenyltetrazolium bromide] assay. In brief, after the removal of the culture medium, MTT, dissolved in DMEM at a concentration of 0.5 mg/mL, was added to the cells and incubated for 4 h at 37 °C. The resulting formazan crystals were dissolved by adding dimethyl sulfoxide. Absorbance values of blue formazan were determined at 560 nm using an automatic plate reader. Cell survival was expressed as a percentage of viable cells in the presence of peptides, compared to control cells grown in their absence. The assay was repeated three times, and the results were averaged. Statistical significance was tested using multiple Welch’s t-tests. All analyses were conducted using Prism 7.
# [1] = test system: C2C12 immortalized mouse myoblast; experiment: MTT cytotoxicity assay on C2C12 myoblasts; format: cell-based; conditions: for cell viability: 72 h, 0.1 wt %; for tolerance of hydrogels in words: C2C12 on hydrogels (1 wt %), 24 h and 72 h, MTT
# Experimental: as §1, §2
# [2] = not given; remark: listed apart in the source
# [3] = not given; remark: listed apart in the source
SMILES,cell viability (L929 murine fibroblast; 72 h),cell viability [1],nanotube radius,fiber mean diameter [2],tolerance of hydrogels in words [1],cell survival (L929 murine fibroblast; 24 h),cell survival (L929 murine fibroblast; 72 h),nanotape mean thickness in hydrogel [3]
"CCCCCCCCCCCCCC(=O)N[C@@H](Cc1c[nH]c2ccccc12)C(=O)NCC(=O)NCC(=O)N[C@@H](CCCNC(=N)N)C(=O)NCC(=O)N[C@@H](CC(=O)O)C(=O)N[C@@H](CO)C(=O)O [mW, C14-WGGRGDS] (HELM PEPTIDE1{[CCCCCCCCCCCCCC(=O)[*:2]].W.G.G.R.G.D.S}$$$$V2.0)",28.1 ± 3.1%,72.3 ± 10.2%,750 Å,,,,,
"CCCCCCCCCCCCCCCC(=O)N[C@@H](Cc1c[nH]c2ccccc12)C(=O)NCC(=O)NCC(=O)N[C@@H](CCCNC(=N)N)C(=O)NCC(=O)N[C@@H](CC(=O)O)C(=O)N[C@@H](CO)C(=O)O [pW, C16-WGGRGDS] (HELM PEPTIDE1{[CCCCCCCCCCCCCCCC(=O)[*:2]].W.G.G.R.G.D.S}$$$$V2.0)",36.3 ± 5.1%,73.3 ± 2.8%,,4 nm,,,,
"CCCCCCCCCCCCCCCC(=O)NCC(=O)NCC(=O)NCC(=O)N[C@@H](CCCNC(=N)N)C(=O)NCC(=O)N[C@@H](CC(=O)O)C(=O)N[C@@H](CO)C(=O)O [pG, C16-GGGRGDS] (HELM PEPTIDE1{[CCCCCCCCCCCCCCCC(=O)[*:2]].G.G.G.R.G.D.S}$$$$V2.0)",31.8 ± 5.1%,86.0 ± 6.8%,,,reasonably well tolerated,,,
"CCCCCCCCCCCCCC(=O)NCC(=O)NCC(=O)NCC(=O)N[C@@H](CCCNC(=N)N)C(=O)NCC(=O)N[C@@H](CC(=O)O)C(=O)N[C@@H](CO)C(=O)O [mG, C14-GGGRGDS] (HELM PEPTIDE1{[CCCCCCCCCCCCCC(=O)[*:2]].G.G.G.R.G.D.S}$$$$V2.0)",30.7 ± 4.7%,84.4 ± 9.6%,,,reasonably well tolerated,92.6 ± 8.8%,94.6 ± 12.6%,13.6 nm
